Reference: patent US20050020544A1, “Bicyclic CB2 cannabinoid receptor ligands” (priority 2002, published 2005)
Read-outs that look alike come from different tables or passages of the source.

Experiments:
[1] = system: IL-2 secretion from activated Jurkat cells; assay: Inhibition of IL-2 in PMA/A23187 activated T cells (ELISA); type: cell-based, human; conditions: for IC50: 24 hours after stimulation, read-out: calculated IC50 IL-2 secretion; for reversal of IL-2 secretion inhibiting activity by antagonists: 0.5-5 μM of CB1 antagonist SR141716A or CB2 antagonist SR144528
Description: The technique used to quantify the amount of a given protein in a liquid sample, either tissue culture supernatant or body fluid, is based on Enzyme Linked ImmunoSorbent Assay (ELISA) methodology. Either commercially available or established in house, the assay is based on the capture of the protein of interest by specific antibodies bound to the bottom of an ELISA plate well. […] Again the unbound material is washed away, the samples are then incubated with the appropriate substrate yielding a calorimetric reaction. The reaction is stopped and reading is performed in a spectrophotometer at the appropriate wavelength. Samples are tested at least in duplicate and the appropriate standard curve, consisting of serial dilutions of the recombinant target protein, is incorporated on each plate. Concentration of the protein in the sample is calculated from the standard curve.
Jurkat cells (human acute lymphoma T-cell line; ATCC # TIB-152) are grown in RPMI 1640 medium with 2 mM L-glutamine adjusted to contain 1.5 g/L sodium bicarbonate, 4.5 g/L glucose, 10 mM HEPES, 1.0 mM sodium pyruvate, and 10% heat inactivated fetal bovine serum. Cells are grown in tissue culture flasks and seeded at appropriate density into 24 wells tissue culture plates. 2×10^6 cells in one milliliter are stimulated using 10 ng/ml of PMA (Sigma) and 1 μM A23187 calcium ionophore (Sigma). […] The controls and test compounds are added at indicated concentrations one hour before stimulation. Supernatant is collected 24 hours after stimulation and the levels of the inflammatory agent under study are measured in an ELISA assay as previously described. Inhibition is calculated versus vehicle treated cells.
The activation of the T cells is performed as previously described. The levels of IL-2 are measured in an ELISA assay as previously described. Inhibition is calculated versus vehicle treated cells.

[2] = system: TNF-α secretion from activated RAW 264.7 macrophages; assay: Inhibition of TNF-α in LPS activated macrophages (ELISA); type: cell-based, mouse; conditions: for effect on TNF-α secretion: doses up to 20 μM
Description: (§1) The technique used to quantify the amount of a given protein in a liquid sample, either tissue culture supernatant or body fluid, is based on Enzyme Linked ImmunoSorbent Assay (ELISA) methodology. Either commercially available or established in house, the assay is based on the capture of the protein of interest by specific antibodies bound to the bottom of an ELISA plate well. Unbound material is washed away, the captured protein is then exposed to a secondary antibody generally labeled with horseradish peroxidase (HRP) or alkaline phosphatase (ALP). Again the unbound material is washed away, the samples are then incubated with the appropriate substrate yielding a calorimetric reaction. The reaction is stopped and reading is performed in a spectrophotometer at the appropriate wavelength. Samples are tested at least in duplicate and the appropriate standard curve, consisting of serial dilutions of the recombinant target protein, is incorporated on each plate. Concentration of the protein in the sample is calculated from the standard curve.
(§2) RAW 264.7 macrophages, a mouse cell line (ATCC # TIB-71), were grown in Dulbecco's modified Eagle's medium (DMEM) with 4 mM L-glutamine adjusted to contain 1.5 g/L sodium bicarbonate, 4.5 g/L glucose, and 10% heat inactivated fetal bovine serum. Cells were grown in tissue culture flasks and seeded at appropriate density into 24 wells tissue culture plates. 0.5×10^6 Raw cells in one milliliter were stimulated with 2 μg/ml Lipopolysaccharide E. coli 055:B5 (DIFCO Laboratories). The mouse macrophages were pre-treated for one hour with controls or 10 μM of bicyclic CB2 ligands and later on activated with LPS. Dexamethasone was used as a positive control at 50 nM. Supernatant was collected 4 hours (for PGE2) and 24 hours (for IL-1β and TNF-α) after activation, and the levels of the inflammatory agent under study were determined by ELISA, as previously described. Inhibition was calculated versus vehicle treated cells.
The activation of the macrophages is performed as previously described. The levels of TNF-α are measured in an ELISA assay as previously described. Inhibition is calculated versus vehicle treated cells.

[3] = system: PGE2 secretion from activated RAW 264.7 macrophages; assay: Inhibition of PGE2 in LPS activated macrophages (ELISA); type: cell-based, mouse; conditions: 4 hours after activation, doses 1 μM to 20 μM
Description: as §1, §2
The activation of the macrophages is performed as previously described. The levels of PGE2 are measured in an ELISA assay as previously described. Inhibition is calculated versus vehicle treated cells. […] Results are depicted in FIG. 2B.

human CB2 receptor = human CB2 receptor (Homo sapiens, UniProt P34972); assay: Adenylylcyclase assay: forskolin-activated cAMP in CB2 transfected HEK-293 cells; type: cell-based; conditions: for inhibition at 1 µM: HEK293, read-out: % inhibition at 1 μM
human CB2 receptor, sequence (P34972 whole entry): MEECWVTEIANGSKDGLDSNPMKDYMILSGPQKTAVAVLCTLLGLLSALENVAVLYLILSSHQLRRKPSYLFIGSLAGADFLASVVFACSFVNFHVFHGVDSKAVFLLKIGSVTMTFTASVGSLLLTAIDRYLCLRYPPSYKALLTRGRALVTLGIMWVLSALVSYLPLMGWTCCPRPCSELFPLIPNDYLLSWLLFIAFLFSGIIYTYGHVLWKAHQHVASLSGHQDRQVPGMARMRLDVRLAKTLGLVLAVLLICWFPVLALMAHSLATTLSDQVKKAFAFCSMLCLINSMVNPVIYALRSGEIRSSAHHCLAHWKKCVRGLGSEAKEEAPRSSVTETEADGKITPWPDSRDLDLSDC
Description: Cannabinoids and derivatives bind to G-protein-coupled CB1 and CB2 receptors and exert their activity via the inhibition of adenylylcyclase activity. An adenylylcyclase assay forms a basis for the functional analysis of the compounds by determining their capacity to inhibit or promote forskolin-activated cAMP production. The assay is carried out according to Chin et al. (Chin, C. N. et al., J. Neurochem. 70: 366-73, 1998). Briefly, HEK-293 human kidney cells (ATCC#CRL-1573) stably transfected with either the human CB1 or CB2 receptor (cDNA) were grown in DMEM supplemented with 10% fetal calf serum, 1% Penicillin-Streptomycin and 2 mM L-glutamine. Cells were seeded in 24 wells plate at 5×10^4 cells/well and incubated for 48 hours. Medium was then removed and the adherent cells were washed with PBS. Two hundred μl of serum free medium supplemented with 0.2 mM Ro 20-1724, 0.25% BSA, and 20 mM HEPES was then added to each well. The cells were then activated with 1 μM forskolin in presence of the bicyclic test compounds in concentrations ranging from 10 pM up to 1 μM. The activated cells were then incubated at 37° C. for 20 minutes and the reaction terminated with 1.2 M HCl to a final concentration of 0.1 M. Cells were lyzed by freeze and thaw and the lysate was neutralized with 2 M HEPES, pH 7.5. cAMP was measured in 50 μl aliquots using the [^3H]-cAMP assay system (Amersham).
This experiment was first performed on CB2 receptor transfected cells.

[4] = CB2 receptor transfected HEK-293, 1 μM forskolin
[5] = CB2 receptor transfected HEK-293, 1 μM forskolin, read-out: IC50 inhibition of cAMP level

Row | SMILES | IC50 [1] | effect on TNF-α secretion [2] | IC50 [3] | % inhibition at 1 μM (human CB2 receptor; [4]) | IC50 (human CB2 receptor; [5]) | reversal of IL-2 secretion inhibiting activity by antagonists [1] | IC50 ([1]; Homo sapiens, Jurkat) | reduction of TNF-α secretion ([2]; 10 μM) | IC50 ([2]; Mus musculus, RAW264.7) | IC50 ([3]; Mus musculus, RAW264.7) | IC50 (human CB2 receptor) | inhibition at 1 µM (human CB2 receptor; [4]) | effect on IL-2 secretion ([1]; doses of up to 10 μM)
1 | CCCCC(C)(C)c1cc(O)c(C2CC(=O)C3CC2C3(C)C)c(OC(=O)CCC(=O)O)c1 (single isomer, unassigned; (-)) [Compound Y, (−)-4-{4-[1,1-Dimethyl-pentyl]-2-succinate-6-hydroxy-phenyl}-6,6-dimethyl-bicyclo[3.1.1]heptan-2-one] | 9 µM | none of them did significantly affect TNF-α secretion | 7 µM | 60% | 0.00113 µM | – | – | – | – | – | – | – | –
2 | CCCCCCC(C)(C)c1cc(O)c(C2CC(=O)C3CC2C3(C)C)c(O)c1 (single isomer, unassigned; (-)) [Compound A, (−)-4-[4-(1,1-Dimethyl-heptyl)2,6-dihydroxy-phenyl]-6,6-dimethyl-bicyclo[3.1.1)heptan-2-one] | – | – | – | – | – | not reversed by any of these antagonists | 3 µM | 53% | 10 µM | 9 µM | 0.00024 µM | 63% | –
3 | CCCCCCC(C)(C)c1cc(O)c([C@H]2CC(=O)[C@H]3C[C@@H]2C3(C)C)c(OC(=O)CCC(=O)O)c1 [Compound R, (−)-4-{4-[1,1-Dimethyl-heptyl]-2-succinate-6-hydroxy-phenyl}-6,6-dimethyl-bicyclo[3.1.1]heptan-2-one] | – | none of them did significantly affect TNF-α secretion | – | – | 0.00047 µM | – | 9 µM | – | – | 9 µM | – | 64% | –
4 | CCCCCCC(C)(C)c1cc(OC)c(C2C=C(CO)C3CC2C3(C)C)c(OC)c1 (single isomer, unassigned; (+)) [HU-308, (+) {4-[4-(1,1-dimethylheptyl)-2,6-dimethoxy-phenyl]-6,6-dimethyl-bicyclo[3.1.1]hept-2-en-2-yl}-methanol, reference compound] | – | – | – | – | – | – | – | – | – | – | – | – | minimal effect
5 | CCCCC(C)(C)c1cc(O)c(C2CC(=O)C3CC2C3(C)C)c(O)c1 (single isomer, unassigned; (-)) [Compound L, (−)-4-[4(1,1-Dimethyl-pentyl)-2,6-dihydroxy-phenyl]-6,6-dimethyl-bicyclo[3.1.1]heptan-2-one] | – | none of them did significantly affect TNF-α secretion | – | – | – | not reversed by any of these antagonists | 8 µM | – | – | 7 µM | – | 33% | –
